# Tests used:
# [1] = tested on: bitransgenic EpA960/MCM mice; experiment: Tamoxifen-inducible heart-specific DM1 mouse model, mortality; type: in vivo; conditions: intraperitoneal mifepristone in saline, beginning 2 hours after first tamoxifen injection; 1-100 mg per kg body weight; mock-treated mice 80% died within 3 weeks
# Description: In this model, EpA960 RNA is induced in the bitransgenic EpA960/MCM mice (F1 progeny) by 5 consecutive daily intraperitoneal injections of tamoxifen (20 mg/kg/d) leading to high mortality, conduction abnormalities, and systolic and diastolic dysfunction. […] Control or mock-treated mice are injected with saline solution alone. Each of the control and test groups typically includes 10-20 mice.
# Typically, eighty percent of the mock-treated mice died within 3 weeks of RNA induction due to arrhythmias and/or contractile dysfunction. […] Description of experimental procedures can be found in, e.g., Wang et al., J Clin Invest. 2009; 119(12):3797-806.
# [2] = percent of the daily dose; in one study (Kawai); cited from earlier work
compound,measurement,setting,value
"CC#C[C@]1(O)CC[C@H]2[C@@H]3CCC4=CC(=O)CCC4=C3[C@@H](c3ccc(N(C)C)cc3)C[C@@]21C [Mifepristone, 17-β-hydroxy-11-β-(4-dimethyl-aminophenyl)-17-α-(1-propynyl)-estra-4,9-dien-3-one]",reduction of the mortality of bitransgenic mice,[1],at least 10%
same,daily dose excreted in the urine,[2],less than 0.5%
